# System: CD138-purified plasma cells
# Assay: GEP-based pharmacogenomics of paired plasma cells prior to and 48 hours after an IMiD test dose
# Format: in vivo, human
# Settings: MM patients, bone marrow plasma cells, 48 hr after test dose vs. baseline, SAM analysis; Affymetrix U95Av2 (thalidomide 400 mg/d, lenalidomide 25 to 50 mg/d) or U133Plus2.0 (pomalidomide 4 mg/d)
# Description: GEP-based pharmacogenomics of paired CD138-purified plasma cells, obtained from patients prior to and 48 hours after administration of test doses of Thal (42 newly diagnosed MM), Len (18 relapsed/refractory MM), or Pom (18 relapsed/refractory MM) were compared using significance analysis of microarrays (SAM).
# Plasma cell purifications and GEP, using the Affymetrix U133 Plus 2.0 microarray, were performed as previously described (Ref: Zhan F, Huang Y, Colla S, et al. The molecular classification of multiple myeloma. Blood. 2006; 108:2020-2028.). Samples were hybridized to Affymetrix expression arrays. Affymetrix U133Plus2.0 arrays were used in the pomalidomide study and Affymetrix U95Av2 arrays were used for thalidomide and lenalidomide pharmacogenomics studies. Bone marrow samples from MM patients enrolled in pharmacogenomics study were obtained prior to, and 48 hours after administration of a test dose of thalidomide (n=42 newly diagnosed), lenalidomide (n=18 relapsed/refractory) or pomalidomide (n=18 relapsed refractory). Plasma cell isolation from mononuclear cell fraction was performed by immunomagnetic bead selection with monoclonal anti-human CD138 antibody using the AutoMACS automated separation system (Miltenyi-Biotec) as previously described. Isolated bone marrow plasma cells were processed and analyzed for Gene-expression profiling (GEP) according to previously reported methods. Samples were hybridized to an Affymetrix U133Plus2.0 microarray for pomalidomide study and to an Affymetrix U95Av2 microarray for thalidomide and lenalidomide studies according to the manufacturer's recommendations and then read on GeneChip Scanner 3000 (Affymetrix). The data files were deposited in the ArrayExpress archive under the accession number E-TABM-1138. […]
row,SMILES,Probe sets changed (p < 0.05) after 48 hr of IMiD treatment
1,"Nc1cccc2c1C(=O)N(C1CCC(=O)NC1=O)C2=O (stereo not drawn) [Pomalidomide, pomalidomide]",4944
2,"Nc1cccc2c1CN(C1CCC(=O)NC1=O)C2=O (stereo not drawn) [Lenalidomide, lenalidomide]",1304
3,"O=C1CCC(N2C(=O)c3ccccc3C2=O)C(=O)N1 (stereo not drawn) [Thalidomide, thalidomide]",1398

# — patent publication US10697024B2, “Methods of determining IMiDS resistance in plasma cell disorders” (The Charlotte Mecklenburg Hospital Authority, priority 2016, dated 2020)
